Each compound was assayed against T1, PAD4 enzyme (Homo sapiens (Human), UniProt Q9UM07) (assay: FP Binding assay). Conditions: fluorescein labelled probe JPAD-00085, 60 minutes.
T1 sequence (Q9UM07 whole entry): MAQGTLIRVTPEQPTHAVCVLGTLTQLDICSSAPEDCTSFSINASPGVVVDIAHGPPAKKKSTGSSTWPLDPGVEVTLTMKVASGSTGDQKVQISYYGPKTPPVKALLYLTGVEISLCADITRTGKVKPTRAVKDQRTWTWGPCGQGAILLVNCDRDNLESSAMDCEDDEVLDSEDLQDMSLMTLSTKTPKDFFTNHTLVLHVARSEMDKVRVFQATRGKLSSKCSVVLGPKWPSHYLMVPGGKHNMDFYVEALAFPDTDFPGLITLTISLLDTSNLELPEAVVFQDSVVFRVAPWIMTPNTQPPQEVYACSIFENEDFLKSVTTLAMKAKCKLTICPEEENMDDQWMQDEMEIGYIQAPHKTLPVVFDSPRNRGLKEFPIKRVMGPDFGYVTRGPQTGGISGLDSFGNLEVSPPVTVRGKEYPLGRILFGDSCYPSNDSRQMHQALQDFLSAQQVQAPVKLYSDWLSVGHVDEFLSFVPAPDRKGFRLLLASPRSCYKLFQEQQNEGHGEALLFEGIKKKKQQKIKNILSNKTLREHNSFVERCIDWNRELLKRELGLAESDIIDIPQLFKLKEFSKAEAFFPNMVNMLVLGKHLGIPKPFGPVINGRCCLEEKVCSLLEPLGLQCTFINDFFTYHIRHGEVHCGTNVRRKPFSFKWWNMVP
Method: Binding of compounds with PAD4 enzyme was detected by FP assay. PAD4 enzyme was diluted to 1 uM in assay buffer (100 mM HEPES, 50 mM NaCl, 1 mM DTT, 5% Glycerol and 1 mM CHAPS) and added to wells containing various concentration of compounds or DMSO vehicle (1%) in a 384 well black plate. 10 nM of fluorescein labelled probe (JPAD-00085) was added to the plate. Assay plate was incubated for 60 minutes at room temperature before measuring FP reading at FP module (ex 485/2em 535 nm) on Pherastar. IC50 was calculated using XL-fit software model 205. (Ref: Nat Chem Biol. 2015 March; 11 (3): 189-91).
`NCC1CCCCN1C(=O)c1cc2c3c(c1)nc(-c1cc4ccccc4n1CC1CC1)n3CCO2` (stereo not shown) [Example 4, (2-(aminomethyl)piperidin-1-yl)(2-(1-(cyclopropylmethyl)-1H-indol-2-yl)-3,4-dihydro-5-oxa-1,2a-diazaacenaphthylen-7-yl)methanone] was tested, and the IC50 was ≥ 10 µM. `Cc1cccc2cc(-c3nc4cc(C(=O)N5CCC[C@@H](N)C5)cc5c4n3CCO5)n(CC3CC3)c12` [Example 8, (R)-(3-aminopiperidin-1-yl)(2-(1-(cyclopropylmethyl)-7-methyl-1H-indol-2-yl)-3,4-dihydro-5-oxa-1,2a-diazaacenaphthylen-7-yl)methanone] was tested, and the IC50 was ≤ 1 µM. `N[C@@H]1CCCN(C(=O)c2cc3c4c(c2)nc(-c2cc5ccccc5n2Cc2ccncc2)n4CCO3)C1` [Example 10, (R)-(3-aminopiperidin-1-yl)(2-(1-(pyridin-4-ylmethyl)-1H-indol-2-yl)-3,4-dihydro-5-oxa-1,2a-diazaacenaphthylene-7-yl)methanone] was tested, and the IC50 was ≤ 1 µM. With `N[C@@H]1CCCN(C(=O)c2cc3c4c(c2)nc(-c2cc5ccccc5n2Cc2ccccn2)n4CCO3)C1` [Example 11, (R)-(3-aminopiperidin-1-yl)(2-(1-(pyridine-2-ylmethyl)-1H-indol-2-yl)-3,4-dihydro-5-oxa-1,2a-diazaacenaphthylen-7-yl)methanone] the IC50 was ≤ 1 µM. For `CCc1c(-c2nc3cc(C(=O)N4CCC[C@@H](N)C4)cc4c3n2CCO4)sc2ccccc12` [Example 12, (R)-(3-aminopiperidin-1-yl)(2-(3-ethylbenzo[b]thiophen-2-yl)-3,4-dihydro-5-oxa-1,2a-diazaacenaphthylen-7-yl)methanone], the IC50 was ≤ 1 µM. `N[C@@H]1CCCN(C(=O)c2cc3c4c(c2)nc(-c2cc5ccccc5n2Cc2ccccc2F)n4CCO3)C1` [Example 14, (R)-(3-aminopiperidin-1-yl)(2-(1-(2-fluorobenzyl)-1H-indol-2-yl)-3,4-dihydro-5-oxa-1,2a-diazaacenaphthylene-7-yl)methanone] was tested, and the IC50 was ≤ 1 µM. With `COc1ccc(Cn2c(-c3nc4cc(C(=O)N5CCC[C@@H](N)C5)cc5c4n3CCO5)cc3ccccc32)cc1` [Example 19, (R)-(3-aminopiperidin-1-yl)(2-(1-(4-methoxybenzyl)-1H-indol-2-yl)-3,4-dihydro-5-oxa-1,2a-diazaacenaphthylen-7-yl)methanone] the IC50 was ≤ 1 µM. In the case of `N[C@@H]1CCCN(C(=O)c2cc3c4c(c2)nc(-c2cc5ccccc5n2CC2CC2)n4CCN3)C1` [Example 63, (R)-(3-aminopiperidin-1-yl)(2-(1-(cyclopropylmethyl)-1H-indol-2-yl)-5,6-dihydro-4H-imidazo[1,5,4-de]quinoxalin-8-yl)methanone], the IC50 is reported as ≤ 1 µM. In the case of `N[C@@H]1CCCN(C(=O)c2cc3c4c(c2)nc(-c2cc5cc(F)ccc5n2CC2CC2)n4CCN3)C1` [Example 64, R-(3-aminopiperidin-1-yl)(2-(1-(cyclopropylmethyl)-5-fluoro-1H-indol-2-yl)-5,6-dihydro-4H-imidazo[1,5,4-de]quinoxalin-8-yl)methanone], the IC50 is reported as ≤ 1 µM. In the case of `CN1CCn2c(-c3cc4ccccc4n3CC3CC3)nc3cc(C(=O)N4CCC[C@@H](N)C4)cc1c32` [Example 72, R-(3-aminopiperidin-1-yl)(2-(1-(cyclopropylmethyl)-1H-indol-2-yl)-6-methyl-5,6-dihydro-4H-imidazo[1,5,4-de]quinoxalin-8-yl)methanone], the IC50 is reported as ≤ 1 µM. With `COc1ccc2cc(-c3nc4cc(C(=O)N5CCC[C@@H](N)C5)cc5c4n3CCN5)n(CC3CC3)c2c1` [Example 73, (R)-(3-aminopiperidin-1-yl)(2-(1-(cyclopropylmethyl)-6-methoxy-1H-indol-2-yl)-5,6-dihydro-4H-imidazo[1,5,4-de]quinoxalin-8-yl)methanone] the IC50 was ≤ 1 µM. `N[C@@H]1CCCN(C(=O)c2cc3c4c(c2)nc(-c2cc5cc(F)c(F)cc5n2CC2CC2)n4CCN3)C1` [Example 77, (R)-(3-aminopiperidin-1-yl)(2-(1-(cyclopropylmethyl)-5,6-difluoro-1H-indol-2-yl)-5,6-dihydro-4H-imidazo[1,5,4-de]quinoxalin-8-yl)methanone] was tested, and the IC50 was ≤ 1 µM.

What follows are compounds tested against T1, PAD4 enzyme (assay: Ammonia Release Biochemical Assay (citrullination detected via ammonia release)). Conditions: BAEE substrate, 60-min preincubation, read-out: NH3 release.
Method: Ammonia Release Biochemical Assay
Citrullination assay was detected via ammonia release. PAD4 enzyme was diluted to 120 nM in assay buffer (100 mM HEPES, 50 mM NaCl, 2 mM DDT, 0.6 mg/mL BSA, pH 7.4) added to wells containing various concentration of compound or DMSO vehicle (1% final) in black 384 well plate. Following a 60-min preincubation at room temperature, the reaction was initiated by the addition of substrate (1.5 mM BAEE in 200 mM HEPES, 50 mM NaCl, 350 uM CaCl2, 2 mM, pH 7.4). The reaction was stopped after 60 min by addition of stop/detection buffer containing 50 mM EDTA, 2.6 mM of o-phthaladehyde and 2.6 mM DTT. Assay was incubated at room temperature for 90 min before measuring fluorescence's (2ex 405/2em 460 nm) on Tecan reader. IC50 was calculated using XL-fit software model 205. (Ref: Nat Chem Biol. 2015 March;11 (3): 189-91).
For `N[C@@H]1CCCN(C(=O)c2cc3c4c(c2)nc(-c2cc5ccccc5n2CC2CC2)n4CCO3)C1` [Example 1, (R)-(3-aminopiperidin-1-yl)(2-(1-(cyclopropylmethyl)-1H-indol-2-yl)-3,4-dihydro-5-oxa-1,2a-diazaacenaphthylen-7-yl)methanone], the IC50 was ≤ 1 µM. With `COc1ccc(Cn2c(-c3nc4cc(C(=O)N5CCC[C@@H](N)C5)cc5c4n3CCO5)cc3cccc(Cl)c32)cc1` [Example 39, (R)-(3-aminopiperidin-1-yl)(2-(7-chloro-1-(4-methoxybenzyl)-1H-indol-2-yl)-3,4-dihydro-5-oxa-1,2a-diazaacenaphthylen-7-yl)methanone] the IC50 was ≤ 1 µM. `N[C@@H]1CCCN(C(=O)c2cc3c4c(c2)nc(-c2cc5ccccc5n2CC2CCC2)n4CCO3)C1` [Example 41, (R)-(3-aminopiperidin-1-yl)(2-(1-(cyclobutylmethyl)-1H-indol-2-yl)-3,4-dihydro-5-oxa-1,2a-diazaacenaphthylen-7-yl)methanone] was tested, and the IC50 was ≤ 1 µM. `N[C@@H]1CCCN(C(=O)c2cc3c4c(c2)nc(-c2cc5cccc(Cl)c5n2CC2CCC2)n4CCO3)C1` [Example 53, (R)-(3-aminopiperidin-1-yl)(2-(7-chloro-1-(cyclobutylmethyl)-1H-indol-2-yl)-3,4-dihydro-5-oxa-1,2a-diazaacenaphthylen-7-yl)methanone] was tested, and the IC50 was ≤ 1 µM.
